Experimental data published in PubChem BioAssay (NCI).
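GI50: concentration for 50% inhibition of growth. At the TGI there is no net growth.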

Assays:
Assay in all cases: NCI anticancer screen, dose series, 384-well format
[1] = tested on: NCI-H226 lung
[2] = tested on: OVCAR-5 ovarian
[3] = tested on: ACHN renal
[4] = tested on: HS 578T breast
[5] = tested on: SN12C renal
[6] = tested on: RPMI-8226 leukemia
[7] = tested on: MALME-3M melanoma
[8] = tested on: OVCAR-3 ovarian
[9] = tested on: MCF7 breast
[10] = tested on: K-562 leukemia
[11] = tested on: MDA-MB-231 breast
[12] = tested on: RXF 393 renal
[13] = tested on: MOLT-4 leukemia
[14] = tested on: IGROV1 ovarian
[15] = tested on: HCT-15 colon
[16] = tested on: NCI-H322M lung
[17] = tested on: OVCAR-4 ovarian
[18] = tested on: HCC-2998 colon
[19] = tested on: UACC-257 melanoma
[20] = tested on: 786-0 renal
[21] = tested on: A498 renal
[22] = tested on: CAKI-1 renal
[23] = tested on: SK-OV-3 ovarian
[24] = tested on: HOP-92 NSCLC
[25] = tested on: NCI/ADR-RES ovarian
[26] = tested on: SW-620 colon
[27] = tested on: HL-60(TB) leukemia
[28] = tested on: NCI-H23 lung
[29] = tested on: M14 melanoma
[30] = tested on: SF-295 CNS
[31] = tested on: U251 glioblastoma
[32] = tested on: TK-10 renal
[33] = tested on: MDA-MB-435 melanoma
[34] = tested on: HOP-62 NSCLC
[35] = tested on: COLO 205 colon
[36] = tested on: SK-MEL-5 melanoma
[37] = tested on: A549 NSCLC
[38] = tested on: SF-268 CNS
[39] = tested on: KM12 colon
[40] = tested on: BT-549 breast
[41] = tested on: HCT-116 colon
[42] = tested on: OVCAR-8 ovarian
[43] = tested on: UO-31 renal
[44] = tested on: SNB-75 CNS
[45] = tested on: NCI-H522 lung
[46] = tested on: NCI-H460 NSCLC
[47] = tested on: CCRF-CEM leukemia
[48] = tested on: HT29 colon
[49] = tested on: SK-MEL-28 melanoma
[50] = tested on: UACC-62 melanoma
[51] = tested on: EKVX NSCLC
[52] = tested on: MDA-MB-468 breast
[53] = tested on: PC-3 prostate
[54] = tested on: SNB-19 CNS
[55] = tested on: LOX IMVI melanoma
[56] = tested on: T-47D breast
[57] = tested on: SF-539 CNS
[58] = tested on: DU-145 prostate

Compound: COC[C@H](NC(=O)c1cnc(C)s1)C(=O)N[C@@H](COC)C(=O)N[C@@H](Cc1ccccc1)C(=O)[C@@]1(C)CO1
- GI50 [1]: < 10 nM
- TGI [1]: < 10 nM
- GI50 [2]: < 10 nM
- TGI [2]: 81.2 nM
- GI50 [3]: < 10 nM
- TGI [3]: 156 nM
- GI50 [4]: < 10 nM
- TGI [4]: < 10 nM
- GI50 [5]: 10.7 nM
- TGI [5]: 30.3 nM
- GI50 [6]: < 10 nM
- TGI [6]: < 10 nM
- GI50 [7]: < 10 nM
- TGI [7]: < 10 nM
- GI50 [8]: < 10 nM
- TGI [8]: < 10 nM
- GI50 [9]: < 10 nM
- TGI [9]: 325 nM
- GI50 [10]: 11 nM
- TGI [10]: 35.4 nM
- GI50 [11]: < 10 nM
- TGI [11]: < 10 nM
- GI50 [12]: < 10 nM
- TGI [12]: < 10 nM
- GI50 [13]: < 10 nM
- TGI [13]: < 10 nM
- GI50 [14]: 15 nM
- TGI [14]: 51.2 nM
- GI50 [15]: 36.8 nM
- TGI [15]: 154 nM
- GI50 [16]: < 10 nM
- TGI [16]: 236 nM
- GI50 [17]: 12.3 nM
- TGI [17]: 29.8 nM
- GI50 [18]: < 10 nM
- TGI [18]: 11.2 nM
- GI50 [19]: < 10 nM
- TGI [19]: 11.7 nM
- GI50 [20]: < 10 nM
- TGI [20]: 127 nM
- GI50 [21]: < 10 nM
- TGI [21]: 10.3 nM
- GI50 [22]: < 10 nM
- TGI [22]: 1790 nM
- GI50 [23]: < 10 nM
- TGI [23]: 23 nM
- GI50 [24]: < 10 nM
- TGI [24]: < 10 nM
- GI50 [25]: 1290 nM
- TGI [25]: 2910 nM
- GI50 [26]: < 10 nM
- TGI [26]: < 10 nM
- GI50 [27]: 10.7 nM
- TGI [27]: 23 nM
- GI50 [28]: < 10 nM
- TGI [28]: < 10 nM
- GI50 [29]: < 10 nM
- TGI [29]: < 10 nM
- GI50 [30]: < 10 nM
- TGI [30]: < 10 nM
- GI50 [31]: 10.2 nM
- TGI [31]: 25.6 nM
- GI50 [32]: < 10 nM
- TGI [32]: 22.5 nM
- GI50 [33]: < 10 nM
- TGI [33]: < 10 nM
- GI50 [34]: < 10 nM
- TGI [34]: < 10 nM
- GI50 [35]: < 10 nM
- TGI [35]: 1530 nM
- GI50 [36]: < 10 nM
- TGI [36]: < 10 nM
- GI50 [37]: < 10 nM
- TGI [37]: 256 nM
- GI50 [38]: < 10 nM
- TGI [38]: < 10 nM
- GI50 [39]: < 10 nM
- TGI [39]: < 10 nM
- GI50 [40]: < 10 nM
- TGI [40]: < 10 nM
- GI50 [41]: < 10 nM
- TGI [41]: < 10 nM
- GI50 [42]: < 10 nM
- TGI [42]: 62.2 nM
- GI50 [43]: 17.2 nM
- TGI [43]: 33 nM
- GI50 [44]: < 10 nM
- TGI [44]: < 10 nM
- GI50 [45]: < 10 nM
- TGI [45]: < 10 nM
- GI50 [46]: 23.1 nM
- TGI [46]: 99.6 nM
- GI50 [47]: < 10 nM
- TGI [47]: < 10 nM
- GI50 [48]: < 10 nM
- TGI [48]: < 10 nM
- GI50 [49]: < 10 nM
- TGI [49]: 12.8 nM
- GI50 [50]: < 10 nM
- TGI [50]: < 10 nM
- GI50 [51]: 14.4 nM
- TGI [51]: 77.3 nM
- GI50 [52]: < 10 nM
- TGI [52]: < 10 nM
- GI50 [53]: 10.5 nM
- TGI [53]: 24 nM
- GI50 [54]: < 10 nM
- TGI [54]: 16.4 nM
- GI50 [55]: < 10 nM
- TGI [55]: 12 nM
- GI50 [56]: < 10 nM
- TGI [56]: < 10 nM
- GI50 [57]: < 10 nM
- TGI [57]: < 10 nM
- GI50 [58]: < 10 nM
- TGI [58]: 223 nM
